Results taken from PubChem BioAssay (NCI).
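Assay format: 96-well plates, 48-hour exposure. At the TGI there is no net growth.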

What was measured:
Test in all cases: DTP human tumour cell line panel, 48 h
[1] = tested on: TK-10 renal
[2] = tested on: OVCAR-5 ovarian
[3] = tested on: OVCAR-3 ovarian
[4] = tested on: HOP-62 NSCLC
[5] = tested on: SK-MEL-28 melanoma
[6] = tested on: UO-31 renal
[7] = tested on: SW-620 colon
[8] = tested on: SK-MEL-5 melanoma
[9] = tested on: COLO 205 colon
[10] = tested on: SF-268 CNS

Row | SMILES | TGI [1] [µM] | TGI [2] [µM] | TGI [3] [µM] | TGI [4] [µM] | TGI [5] [µM] | TGI [6] [µM] | TGI [7] [µM] | TGI [8] [µM] | TGI [9] [µM] | TGI [10] [µM]
1 | O=C1CC(n2cccc2)c2c(Br)sc(Br)c21 (stereo not given) | 45.4 | 32.5 | 33.2 | 53.4 | 41.2 | 5.66 | 41.3 | 29.6 | 30.7 | 31.2
2 | Cc1cc2c(c(=O)n1C)SCC2 | > 100 | > 100 | > 100 | > 100 | > 100 | > 100 | > 100 | > 100 | > 100 | > 100
3 | COC(=O)[C@@H]1CN(C(=O)c2ccccc2)C(=O)N1C(=O)OCc1ccccc1 | > 100 | > 100 | > 100 | > 100 | > 100 | > 100 | > 100 | > 100 | > 100 | > 100
4 | CC1(C2CCC3(C)OC3C2)CO1 (stereo not given) | > 100 | > 100 | > 100 | > 100 | > 100 | > 100 | > 100 | > 100 | > 100 | > 100
5 | CCOP(=O)(OCC)/C(C#N)=C/c1cccn1Cc1ccccc1 | > 100 | > 100 | > 100 | > 100 | 39.5 | 99.7 | 75.2 | 32.5 | 44.5 | > 100
6 | COc1ccc(-c2cc(C(O)C3CCCCN3)c3ccccc3n2)cc1 (stereo not given) | 23.7 | 24.8 | 27.8 | 24.3 | 5.49 | 8.54 | 25.2 | 17.2 | 3.54 | 27.7
7 | Cc1ccc(/C(O)=C/c2nc3ccc([N+](=O)[O-])cc3nc2/C=C(\O)c2ccc(C)cc2)cc1 | > 100 | > 100 | > 100 | 75.8 | > 100 | > 100 | > 100 | > 100 | > 100 | > 100
8 | CC(=O)/C(=C\c1ccc(Cl)c(Cl)c1)C(=O)C(C)CN(C)C (stereo not given) | 5.82 | 23.8 | 16.1 | 41.1 | 21 | 14.5 | 9.01 | 25.3 | 24.4 | 23.4
9 | CN(C)C(=S)Oc1ccc2ccc(=O)oc2c1 | > 100 | > 100 | > 100 | > 100 | > 100 | > 100 | > 100 | > 100 | > 100 | > 100
10 | CCOP(=O)(OCC)C(C)(CC)NC(=O)C(C(F)(F)F)C(F)(F)F (stereo not given) | > 100 | > 100 | > 100 | > 100 | > 100 | > 100 | > 100 | > 100 | > 100 | > 100
11 | O=C(CC1Sc2ccccc2NC1=O)Nc1ccc(Cl)cc1 (stereo not given) | > 100 | > 100 | > 100 | > 100 | > 100 | > 100 | > 100 | > 100 | > 100 | > 100
